From patent US20250237010A1, “Selenium Containing Antimicrobial Compound as a Reacitve Dye and Cross-Linking Treatment for Textile Applications” (Texas Tech University System, priority 2021, published 2025)
Like-named read-outs stand apart in the source and are kept apart here.

What was measured:
[1] = tested on: gram-negative and gram-positive bacteria; assay: Antimicrobial activity compared with industry requirements; type: cell-based
Excerpt: In one example, the invention is the chemical compound diseleniummonochlorotriazine. Triazines are commonly used in the textile chemistry to synthesis the reactive dye and apply to fabrics as they form covalent bonds with cellulose. Incorporating selenium creates a reactive dye with antimicrobial properties. This same base structure can be used to make diselenocyanuric chloride, diselenocyanuric bromide, diselenocyanuric fluoride, or diselenocyanuric iodine. […] In one example, the antimicrobial agent has the structure: […]

Staphylococcus aureus = assay: Bacterial killing (CFUs/sample) on cotton fabric treated with the organo-selenium compound, Gram-positive; type: cell-based
Excerpt: (§1) FIGS. 1A and 1B are graphs that compares the colony forming units (CFUs) per sample of bacteria on a fabric, showing total bacterial killing with the organoselenium compound, and no killing without the organoselenium compound. In this example, the organoselenium compound was applied to the fabric as a reactive dye.
(§2) The technology modifies triazines, a commonly used reactive dye within the textile chemistry for application to impart colors to fabrics, by incorporation of selenium to create a reactive dye with antimicrobial characteristics. Since the cotton manufacturing/processing industry currently relies on annealing of triazine to create colored fabrics, the presented technology can be incorporated into this sector with minimal changes in the production environment. The created compound, diseleniummonochlorotriazine, was evaluated in the laboratory by attaching the Se-based compound onto cotton fabrics with the following results: (1) Diseleniummonochlorotriazine killed 100% of Gram-positive bacteria (e.g., Staphylococcus aureus) that attempted to bind to the cotton, and (2) Diseleniummonochlorotriazine killed 90% of Gram-negative bacteria. (e.g., Pseudomonas aeruginosa) that attempted to bind to the cotton.
(§3) Example 1. […] The application technique for the organo-selenium compound can be used by, e.g., the textile industry, on an industrial scale to produce an anti-microbial fabric. […]

Pseudomonas aeruginosa = assay: Bacterial killing (CFUs/sample) on cotton fabric treated with the organo-selenium compound, Gram-negative; type: cell-based; conditions: compound attached onto cotton fabric; e.g. Pseudomonas aeruginosa
Excerpt: as §1, §2, §3

[2] = Binding to cotton and resistance to washing of the resulting fabric; type: physicochemical; conditions: attached to cotton yarns as reactive dye
Excerpt: Briefly, the inventors developed organo-selenium compounds that can be attached to cotton yarns and is suitable for applications as reactive dye.

Row | Molecule | antimicrobial activity level relative to industry expectations/requirements [1] | killed % of Gram-positive bacteria that attempted to bind to the cotton (Staphylococcus aureus; compound attached onto cotton fabric, e.g. Staphylococcus aureus) | killed % of Gram-negative bacteria that attempted to bind to the cotton (Pseudomonas aeruginosa) | antimicrobial activity level relative to industry expectations/requirements ([1]; listed as diseleniummonochlorotriazine) | killing of Staphylococcus aureus on the fabric (CFUs per sample), in words (Staphylococcus aureus; treated cotton fabric, FIG. 1A, applied as reactive dye) | binding to the cotton and resistance to washing [2]
1 | OCC(O)C[Se][Se]CC(O)CO (stereo not shown) | matches or exceed industrial requirements | – | – | – | – | –
2 | Clc1nc([SeH])nc([SeH])n1 [Diseleniummonochlorotriazine, diseleniummonochlorotriazine] | matches industry expectations | 100% | 90% | matches or exceed industrial requirements | – | –
3 | diselenocyanuric chloride | – | – | – | – | totally kill | resistant to multiple washings
